Measurements: ChEMBL document CHEMBL6134780, “Halogenated retinoid derivatives as dual RARα and RXRα modulators for treating acute promyelocytic leukemia cells” (Eur J Med Chem, 2024)
Active and inactive are the calls of the source. The rule behind the calls is not given here.

Tests used:
NB-4 [1] = assay: Antiproliferative activity against human NB4 cells assessed as inhibition of cell viability up to 3.5 uM incubated for 3 days by CCK8 assay relative to control; type: functional; conditions: time 3 day
NB-4 [2] = assay: Induction of cell differentiation in human NB4 cells assessed as NBT positive cells at 0.5 uM incubated for 6 days by Nitro Blue tetrazolium chloride based microscopic analysis (reference value: 0 %); type: functional; conditions: time 6 day
NB-4 [3] = assay: Induction of cell differentiation in human NB4 cells assessed as morphological changes at 0.5 uM incubated for 6 days by Wright-Giemsa staining based analysis; type: functional; conditions: time 6.0 day
K562 [4] = assay: Effect on cell cycle population in human K562 cells at 0.5 uM by DAPI staining based flow cytometric analysis; type: functional
NB-4 [5] = assay: Antiproliferative activity against human NB4 cells assessed as inhibition of cell viability incubated for 3 days by CCK8 assay; type: functional, cell-based; conditions: dose <= 3.5 µM, time 3.0 day
NB-4 [6] = assay: Induction of apoptosis in human NB4 cells assessed as early apoptotic cells at 1 uM incubated for 24 hrs by Annexin V-FITC/PI staining based flow cytometric analysis (reference value: 4.37 %); type: functional
NB-4 [7] = assay: Induction of apoptosis in human NB4 cells assessed as necrotic cells at 1 uM incubated for 24 hrs by Annexin V-FITC/PI staining based flow cytometric analysis (reference value: 0.07 %); type: functional
[8] = Induction of apoptosis in human ATRA-resistant NB4-LR2 cells assessed as viable cells at 1 uM incubated for 24 hrs by Annexin V-FITC/PI staining based flow cytometric analysis (reference value: 87.30 %); type: functional; conditions: read-out: Activity
[9] = Induction of apoptosis in human ATRA-resistant NB4-LR2 cells assessed as necrotic cells at 1 uM incubated for 24 hrs by Annexin V-FITC/PI staining based flow cytometric analysis (reference value: 0.08 %); type: functional
K562 [10] = assay: Induction of apoptosis in human K562 cells assessed as viable cells at 1 uM incubated for 24 hrs by Annexin V-FITC/PI staining based flow cytometric analysis (reference value: 90.02 %); type: functional; conditions: read-out: Activity
[11] = target: T1, Retinoic acid receptor RXR-beta (Homo sapiens) (UniProt P28702); assay: Agonist activity at Gal4-fused full length RXRbeta LBD (unknown origin) transfected in HEK293T cells co-transfected with pG5luc reporter and Renilla-luc at 0.1 to 1 uM incubated for 12 hrs by luciferase reporter gene assay; type: cell-based; conditions: dose 0.1-1 µM
T1 sequence (whole entry): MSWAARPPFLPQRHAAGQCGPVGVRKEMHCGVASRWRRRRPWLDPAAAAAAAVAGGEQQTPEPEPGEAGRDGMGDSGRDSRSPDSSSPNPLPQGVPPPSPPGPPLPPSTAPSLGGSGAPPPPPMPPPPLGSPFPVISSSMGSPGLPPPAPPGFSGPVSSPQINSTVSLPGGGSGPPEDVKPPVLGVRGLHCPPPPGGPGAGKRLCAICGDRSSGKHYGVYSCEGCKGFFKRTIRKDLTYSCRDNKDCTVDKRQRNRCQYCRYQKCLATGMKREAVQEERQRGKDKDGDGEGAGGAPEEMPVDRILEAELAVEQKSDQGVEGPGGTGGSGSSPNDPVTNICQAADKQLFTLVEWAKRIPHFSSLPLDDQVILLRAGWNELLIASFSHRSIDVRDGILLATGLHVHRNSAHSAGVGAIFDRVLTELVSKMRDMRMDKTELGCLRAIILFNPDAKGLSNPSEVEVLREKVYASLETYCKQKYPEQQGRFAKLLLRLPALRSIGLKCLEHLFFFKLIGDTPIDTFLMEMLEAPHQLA

[12] = target: Oxysterols receptor LXR-alpha (Homo sapiens) (UniProt Q13133); assay: Agonist activity at Gal4-fused full length LXRalpha LBD (unknown origin) transfected in HEK293T cells co-transfected with pG5luc reporter and Renilla-luc at 0.1 to 1 uM incubated for 12 hrs by luciferase reporter gene assay; type: cell-based; conditions: dose 0.1-1 µM
[13] = target: T2, Retinoic acid receptor gamma (Homo sapiens, UniProt P13631); assay: Agonist activity at Gal4-fused full length human RARgamma LBD transfected in HEK293T cells co-transfected with pG5luc reporter and Renilla-luc assessed as transactivation incubated for 12 hrs by dual luciferase reporter gene assay; type: cell-based; conditions: read-out: EC50
T2 sequence (P13631 whole entry): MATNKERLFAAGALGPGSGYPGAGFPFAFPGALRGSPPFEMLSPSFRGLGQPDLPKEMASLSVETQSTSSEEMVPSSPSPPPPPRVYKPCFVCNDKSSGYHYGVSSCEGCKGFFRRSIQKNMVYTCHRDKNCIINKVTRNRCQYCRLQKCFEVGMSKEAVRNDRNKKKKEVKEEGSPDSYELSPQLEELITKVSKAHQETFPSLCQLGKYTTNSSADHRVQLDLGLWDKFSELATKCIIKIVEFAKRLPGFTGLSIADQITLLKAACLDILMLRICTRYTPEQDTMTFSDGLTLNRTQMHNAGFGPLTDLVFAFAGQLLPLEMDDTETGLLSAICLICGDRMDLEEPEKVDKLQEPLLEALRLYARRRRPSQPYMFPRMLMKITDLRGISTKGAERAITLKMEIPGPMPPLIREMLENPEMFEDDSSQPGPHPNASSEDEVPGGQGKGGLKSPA

NB4 = assay: Induction of PML-RARalpha degradation in human NB4 cells at 0.5 uM incubated for 6 days by Western blot analysis; type: cell-based; conditions: time 6.0 day
NB-4 [14] = assay: Induction of apoptosis in human NB4 cells assessed as increase in cleaved-PARP expression at 2 uM incubated for 3 to 24 hrs by Western blot analysis; type: functional, cell-based; conditions: time 3-24 hrs
ATRA-resistant NB4-LR2 [15] = assay: Induction of apoptosis in human ATRA-resistant NB4-LR2 cells assessed as increase in cleaved-PARP expression at 2 uM incubated for 3 to 24 hrs by Western blot analysis; type: functional, cell-based; conditions: time 3-24 hrs
NB-4 [16] = assay: Induction of mitosis in human NB4 cells assessed as upregulation of pT210-PLK1 expression at 2 uM measured after 3 hrs by Western blot analysis; type: functional, cell-based
ATRA-resistant NB4-LR2 [17] = assay: Induction of mitosis in human ATRA-resistant NB4-LR2 cells assessed as upregulation of pT210-PLK1 expression at 2 uM measured after 3 hrs by Western blot analysis; type: functional, cell-based

Chain of Oxysterols receptor LXR-alpha (Homo sapiens) (Q13133 whole entry, the tested form may be a part): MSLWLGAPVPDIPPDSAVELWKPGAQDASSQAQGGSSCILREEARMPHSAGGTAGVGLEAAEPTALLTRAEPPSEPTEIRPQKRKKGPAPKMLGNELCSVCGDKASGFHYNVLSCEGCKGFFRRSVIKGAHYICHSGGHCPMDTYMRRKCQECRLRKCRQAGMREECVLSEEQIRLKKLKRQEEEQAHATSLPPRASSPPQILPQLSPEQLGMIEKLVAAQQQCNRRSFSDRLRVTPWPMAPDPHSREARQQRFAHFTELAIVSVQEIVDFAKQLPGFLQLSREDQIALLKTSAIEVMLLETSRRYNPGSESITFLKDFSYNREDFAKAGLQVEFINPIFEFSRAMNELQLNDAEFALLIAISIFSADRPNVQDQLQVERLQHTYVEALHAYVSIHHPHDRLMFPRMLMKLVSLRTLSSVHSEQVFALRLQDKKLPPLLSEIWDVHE

Row | Activity [11] | Activity [12] | EC50 [13] [µM] | Compound | inhibition (INH) (NB-4 [1]) [%] | Activity (NB-4 [2]) [%] | Activity (NB-4 [3]) | Activity (K562 [4]) | Activity (NB-4 [5]) | Activity (NB-4 [6]) [%] | Activity (NB-4 [7]) [%] | viability at 1 µM [8] [%] | Activity [9] [%] | viability at 1 µM (K562 [10]) [%] | Activity (NB4) | Activity (NB-4 [14]) | Activity (ATRA-resistant NB4-LR2 [15]) | Activity (NB-4 [16]) | Activity (ATRA-resistant NB4-LR2 [17])
1 | Weak_effect | Minimal_effect | 2.24 | Cc1cc2c(cc1C(=O)/C(Br)=C/c1ccc(C(=O)O)cc1)C(C)(C)CCC2(C)C | 100 | 64 | Active | inactive | Dose-dependent-effect | 23.14 | 1.3 | 56.2 | 1.44 | 89.3 | Active | Active | Active | Active | Active
2 | Weak_effect | Minimal_effect | 1.14 | Cc1cc2c(cc1C(=O)/C(Br)=C\c1ccc(C(=O)O)cc1)C(C)(C)CCC2(C)C | 100 | 69 | Active | inactive | Dose-dependent-effect | 12.39 | 0.52 | 67.8 | 0.49 | 90.4 | Active | Active | Active | Active | Active
